{"source": "ChEMBL document CHEMBL6115028", "about": "“An Amazing 30-Year Journey around the DABO Family: A Medicinal Chemistry Lesson on a Versatile Class of Non-nucleoside HIV-1 Reverse Transcriptase Inhibitors” (J Med Chem, 2025)", "key": {"[1]": {"system": "A-375", "assay": "Inhibition of cell proliferation in human A-375 cells assessed as alive cells at 10 uM measured for 96 hrs relative to control", "format": "functional"}, "[2]": {"system": "A-375", "assay": "Inhibition of cell proliferation in human A-375 cells assessed as alive cells at 2.5 uM measured for 96 hrs relative to control", "format": "functional"}, "[3]": {"system": "A-375", "assay": "Inhibition of cell proliferation in human A-375 cells assessed as alive cells at 5 uM measured for 96 hrs relative to control", "format": "functional"}, "[4]": {"system": "A-375", "assay": "Inhibition of cell proliferation in human A-375 cells assessed as alive cells at 25 uM measured for 96 hrs relative to control", "format": "functional"}, "[5]": {"system": "Staphylococcus aureus", "assay": "Antibacterial activity against Staphylococcus aureus ATCC 6538 assessed as reduction in bacterial growth incubated for 24 to 48 hrs by serial dilution method", "format": "functional", "details": "time 24-48 hrs"}, "[6]": {"system": "Bacillus subtilis", "assay": "Antibacterial activity against Bacillus subtilis NRRL B-1481 assessed as reduction in bacterial growth incubated for 24 to 48 hrs by serial dilution method", "format": "functional", "details": "time 24-48 hrs"}, "[7]": {"system": "Micrococcus luteus", "assay": "Antibacterial activity against Micrococcus luteus ATCC 2188 assessed as reduction in bacterial growth incubated for 24 to 48 hrs by serial dilution method", "format": "functional", "details": "time 24-48 hrs"}, "[8]": {"system": "Escherichia coli", "assay": "Antibacterial activity against Escherichia coli ATCC 25922 assessed as reduction in bacterial growth incubated for 24 to 48 hrs by serial dilution method", "format": "functional", "details": "time 24-48 hrs"}, "[9]": {"system": "Pseudomonas aeruginosa", "assay": "Antibacterial activity against Pseudomonas aeruginosa ATCC 27853 assessed as reduction in bacterial growth incubated for 24 to 48 hrs by serial dilution method", "format": "functional", "details": "time 24-48 hrs"}, "[10]": {"system": "Influenza A virus", "assay": "Antiviral activity against Influenza A virus A/H1N1 infected in MDCK cells reduction in virus induced cytopathic effect measured after 3 days by CPE assay", "format": "functional, organism-based", "details": "72 h"}, "[11]": {"assay": "Cytotoxicity against dog MDCK cells assessed as reduction in cell viability measured for 3 days by MTT assay", "format": "toxicity, cell-based, Canis lupus familiaris", "details": "time 3 day"}, "[12]": {"system": "Influenza A virus", "assay": "Antiviral activity against Influenza A virus A/H1N1 infected in dog MDCK cells reduction in viral replication incubated for 3 days by MTS assay", "format": "functional, organism-based", "details": "72 h"}, "[13]": {"system": "Influenza A virus", "assay": "Antiviral activity against Influenza A virus A/H2N2 infected in dog MDCK cells reduction in virus induced cytopathic effect measured after 3 days by CPE assay", "format": "functional, organism-based", "details": "72 h"}, "[14]": {"system": "Influenza A virus", "assay": "Antiviral activity against Influenza A virus A/H2N2 infected in dog MDCK cells reduction in viral replication incubated for 3 days by MTS assay", "format": "functional, organism-based", "details": "72 h"}, "[15]": {"system": "Influenza B virus", "assay": "Antiviral activity against Influenza B virus infected in dog MDCK cells assessed as reduction in cytopathic effect measured after 3 days by CPE assay", "format": "functional, organism-based", "details": "72 h"}, "[16]": {"system": "Influenza B virus", "assay": "Antiviral activity against Influenza B virus infected in dog MDCK cells assessed as reduction in viral replication incubated for 3 days by MTS assay", "format": "functional, organism-based", "details": "72 h"}, "[17]": {"system": "HOP-92", "assay": "Growth inhibition of human HOP-92 cells at 10 uM relative to control", "format": "functional", "details": "read-out: GI"}, "[18]": {"assay": "Inhibition of Hepatitis C virus NS5B RNA dependent RNA polymerase", "set-up": "species or system Hepacivirus hominis"}, "[19]": {"assay": "Cytotoxicity against African green monkey Vero cells assessed as reduction in cell viability measured after 96 hrs by MTT assay", "format": "toxicity, cell-based", "details": "chlorocebus sabaeus"}, "[20]": {"system": "Zika virus", "assay": "Antiviral activity against Zika virus infected in Vero cells assessed as reduction in viral DNA replication", "format": "functional, organism-based"}, "[21]": {"assay": "Inhibition of Zika virus NS5 RNA-directed RNA polymerase NS5"}, "[22]": {"assay": "Cytotoxicity against African green monkey Vero cells assessed as reduction in cell growth measured after 96 hrs by MTT assay", "format": "toxicity, cell-based", "details": "chlorocebus sabaeus"}, "[23]": {"system": "A-375", "assay": "Inhibition of cell proliferation in human A-375 cells assessed as alive cells at 50 uM measured for 96 hrs relative to control", "format": "functional"}, "[24]": {"system": "A-375", "assay": "Inhibition of cell proliferation in human A-375 cells assessed as alive cells at 100 uM measured for 96 hrs relative to control", "format": "functional"}, "[25]": {"system": "Hepatitis C virus", "assay": "Antiviral activity against Hepatitis C virus infected in human Huh7.5 cells assessed as reduction in viral replication", "format": "functional, organism-based, Hepacivirus hominis"}, "[26]": {"system": "Huh-7", "assay": "Cytotoxicity against human Huh-7 cells assessed as reduction in cell growth", "format": "functional"}, "[27]": {"system": "MOLT-4", "assay": "Growth inhibition of human MOLT-4 cells at 10 uM relative to control", "format": "functional", "details": "read-out: GI"}}}
{"smiles": "CCC(C)Sc1nc(C(CC)c2c(F)cccc2F)c(C)c(=O)[nH]1", "note": "(stereo not drawn)", "values": [{"measurement": "inhibition at 10 µM", "setting": "[1]", "result": 12, "unit": "%"}, {"measurement": "inhibition at 2.5 µM", "setting": "[2]", "result": 70, "unit": "%"}, {"measurement": "inhibition at 5 µM", "setting": "[3]", "result": 30, "unit": "%"}, {"measurement": "inhibition at 25 µM", "setting": "[4]", "result": 5, "unit": "%"}]}
{"smiles": "COc1cc(-c2nc(SC)[nH]c(=O)c2C#N)ccc1OCc1ccccc1", "values": [{"measurement": "MIC", "setting": "[5]", "result": 12.5, "unit": "µg/mL"}, {"measurement": "MIC", "setting": "[6]", "result": 6.25, "unit": "µg/mL"}, {"measurement": "MIC", "setting": "[7]", "result": 12.5, "unit": "µM"}, {"measurement": "MIC", "setting": "[8]", "result": 12.5, "unit": "µg/mL"}, {"measurement": "MIC", "setting": "[9]", "result": 12.5, "unit": "µg/mL"}]}
{"smiles": "COc1ccc(NC(=O)CSc2nc(Cc3cccc4ccccc34)c(C)c(=O)[nH]2)cc1", "values": [{"measurement": "EC50", "setting": "[10]", "result": 9, "unit": "µM"}, {"measurement": "CC50 at 72 h", "setting": "[11]", "result": "> 224", "unit": "µM"}, {"measurement": "EC50", "setting": "[12]", "result": 9, "unit": "µM"}, {"measurement": "EC50", "setting": "[13]", "result": 26, "unit": "µM"}, {"measurement": "EC50", "setting": "[14]", "result": 9.7, "unit": "µM"}, {"measurement": "EC50", "setting": "[15]", "result": "> 45", "unit": "µM"}, {"measurement": "EC50", "setting": "[16]", "result": "> 22", "unit": "µM"}]}
{"smiles": "N#Cc1c(-c2c(Cl)cccc2Cl)nc(SCC(=O)c2ccc(Br)cc2)[nH]c1=O", "values": [{"measurement": "inhibition of growth at 10 µM", "setting": "[17]", "result": 41, "unit": "%"}]}
{"smiles": "CCc1c(C2CCCCC2)nc(SCC(=O)Nc2cc(F)cc(F)c2)[nH]c1=O", "values": [{"measurement": "IC50", "setting": "[18]", "result": 0.102, "unit": "µM"}, {"measurement": "CC50 at 96 h", "setting": "[19]", "result": "> 10", "unit": "µM"}, {"measurement": "EC50", "setting": "[20]", "result": 7.65, "unit": "µM"}, {"measurement": "IC50", "setting": "[21]", "result": 11.4, "unit": "µM"}, {"measurement": "CC50 at 96 h", "setting": "[22]", "result": "> 200", "unit": "µM"}]}
{"smiles": "CCC(C)Sc1nc(C(C)c2c(F)cccc2F)nc(=O)[nH]1", "note": "(stereo not drawn)", "values": [{"measurement": "inhibition at 50 µM", "setting": "[23]", "result": 62, "unit": "%"}, {"measurement": "inhibition at 100 µM", "setting": "[24]", "result": 14, "unit": "%"}]}
{"smiles": "CCc1c(-c2ccc(C(C)C)cc2)nc(Sc2ccccc2Br)[nH]c1=O", "values": [{"measurement": "IC50", "setting": "[18]", "result": 3.8, "unit": "µM"}, {"measurement": "EC50", "setting": "[25]", "result": 32, "unit": "µM"}, {"measurement": "CC50", "setting": "[26]", "result": "> 250", "unit": "µM"}]}
{"smiles": "CCc1ccc(-c2nc(SCC(=O)c3ccc(Br)cc3)[nH]c(=O)c2C#N)s1", "values": [{"measurement": "inhibition of growth at 10 µM", "setting": "[27]", "result": 42.4, "unit": "%"}]}
